# Data from patent US20160324863A1, “TARGETED CANCER TREATMENT BY HSP90 INHIBITORS GANETESPIB AND NVP-AUY922” (SYNTA PHARMACEUTICALS CORP., priority 2014, published 2016).
# Like-named read-outs stand apart in the source and are kept apart here.
# Columns and labels:
# [1] = tested on: DHS1 bladder cancer cell line; assay: CellTiter-Glo viability assay, DHS1; type: cell-based; settings: FGFR3 status WT, 72 hours, read-out: Ganetespib IC50
# Description: (§1) Cellular viability was assessed using the CellTiter-Glo Luminescent Cell Viability Assay (Promega) according to manufacturer protocols. Bladder cancer cell lines were seeded into 96-well plates based on optimal growth rates determined empirically for each line. Twenty-four hours after plating, cells were dosed with graded concentrations of ganetespib for 72 hours. CellTiter-Glo was added (50% v/v) to the cells, and the plates incubated for 10 minutes prior to luminescent detection in a SpectraMax Plus 384 microplate reader (Molecular Devices). Data were normalized to percent of control and IC50 values used to determine the sensitivity of each line. For the comparative analyses with ganetespib and BGJ398, RT112 cells were treated with graded concentrations of each compound for 72 hours and cell viability measured as above. For the evaluation of apoptotic induction, caspase activity was assessed using the Caspase-Glo 3/7 assay (Promega) according to manufacturer protocols. Twenty-four hours after plating, RT112 cells were treated with graded concentrations of ganetespib for 24 hours. Caspase-Glo was added to cells (50% v/v) and the plates incubated for 1 hour prior to luminescent detection.
# [2] = tested on: BFTC bladder cancer cell line; assay: CellTiter-Glo viability assay, BFTC; type: cell-based; settings: FGFR3 status WT, 72 hours, read-out: Ganetespib IC50
# Description: as §1
# [3] = tested on: J82 bladder cancer cell line; assay: CellTiter-Glo viability assay, J82; type: cell-based; settings: FGFR3 status K652E, 72 hours, read-out: Ganetespib IC50
# Description: as §1
# [4] = tested on: KU-19-19 bladder cancer cell line; assay: CellTiter-Glo viability assay, KU-19-19; type: cell-based; settings: Homo sapiens, FGFR3 status WT, 72 hours, read-out: Ganetespib IC50
# Description: as §1
# [5] = tested on: HT-1197 bladder cancer cell line; assay: CellTiter-Glo viability assay, HT-1197; type: cell-based; settings: Homo sapiens, HT1197, FGFR3 status WT, 72 hours, read-out: Ganetespib IC50
# Description: as §1
# [6] = tested on: MGH-U3 bladder cancer cell line; assay: CellTiter-Glo viability assay, MGH-U3; type: cell-based; settings: FGFR3 status Y375C, 72 hours, read-out: Ganetespib IC50
# Description: as §1
# [7] = tested on: TCCSUP bladder cancer cell line; assay: CellTiter-Glo viability assay, TCCSUP; type: cell-based; settings: Homo sapiens, TCC-SUP, FGFR3 status WT, 72 hours, read-out: Ganetespib IC50
# Description: as §1
# [8] = tested on: RT4 bladder cancer cell line; assay: CellTiter-Glo viability assay, RT4; type: cell-based
# Description: as §1
# [9] = tested on: RT112 xenografts; assay: RT112 xenograft tumor model; type: in vivo; settings: ganetespib 150 mg/kg i.v. once weekly, 3 weeks
# Description: CD-1 nude mice (Charles River Laboratories, Wilmington, Mass.) at 7-12 weeks of age were maintained in a pathogen-free environment and all in vivo procedures were approved by the Synta Pharmaceuticals Corp. Institutional Animal Care and Use Committee. RT112 cells (5×10^6) were subcutaneously implanted into female mice and animals bearing established tumors (˜150 mm^3) were randomized into treatment groups of 8. Mice were i.v. dosed with ganetespib (150 mg/kg) once weekly or p.o. dosed with BGJ398 (10 mg/kg) daily, either alone or in combination, for 3 weeks. Tumor growth inhibition was monitored by tumor volume measurements twice weekly. As a measurement of in vivo efficacy, the % T/C value was determined from the change in average tumor volumes of each treated group relative to the vehicle treated animals. Statistical significance was determined using two-way ANOVA followed by Bonferroni post tests.
# [10] = tested on: panel of eleven CRC-derived cell lines; assay: Proliferation assay in CRC-derived cell lines (Celigo confluence); type: cell-based; settings: Homo sapiens, 96 h; range across eleven CRC cell lines; four days; read-out: Drug concentrations that inhibited the growth rate by 50%
# Description: Eleven cell lines derived from human colorectal cancers (CRC) were cultured in RPMI (Invitrogen, Darmstadt, Germany) supplemented with 10% FCS (ThermoScientific, Waltham Mass., USA), 2 mM L-glutamine and Penicillin-Streptomycin (Invitrogen). Cell-line cross-contaminatino was excluded using short tandem repeat profiling. Specific knockdown of target genes was performed using pre-designed Silencer Select siRNAs (s231075 and s231076, designated s75 and s76) or control siRNAs (scrambled, all from Ambion, Hamburg, Germany) with a final concentration of 5 nM. Overexpression was performed with pCMV-SPORT6 vector constructs. For both up- and downregulation, Lipofectamine 2000 (Invitrogen) was applied in a forward transfection protocol. Ganetespib (Synta Pharma, Lexington Mass., USA) and 17AAG (Calbiochem, Darmstadt, Germany) were dissolved in DMSO (50 mM and 5 mM stocks, respectively) and diluted to the indicated concentrations with culture medium.
# For cell proliferation analysis, cells were seeded at 10^5 cells/well in 12-well plates 24 hours prior to treatment. […] Over the course of the 4-day treatment, cell confluence was measured by brightfield microscopy using a Celigo Adherent Cell Cytometer (Brooks, Chelmsford Mass., USA). Confluence was calculated with the Celigo software program.
# [11] = tested on: SW1463 cells; assay: Cell viability assay, SW1463 colorectal cancer cells; settings: Homo sapiens, read-out: IC50 based on cell viability
# Description: 24 hours after transfection, […] were seeded in triplicate in 96-well plates one day before treatment. Cells were treated with inhibitors and drugs for 48 hours and subjected to the CellTiterGlo Luminescent Cell Viability assay (Promega, Madison Wis., USA).
# [12] = tested on: RT112 cells; assay: LC-MS/MS bioanalysis of ganetespib and glucuronidated metabolites in RT112 cells; type: in vitro ADME; settings: 1 μM ganetespib, 24-hour time course
# Description: In the first set of experiments, RT112 and SW780 cells were treated with graded concentrations of ganetespib or 17-DMAG (10-1000 nM) for 1 and 24 hours. Cell lysates were prepared for measurement of intracellular concentrations of the respective HSP90 inhibitors. RT112 and SW780 cells were also treated with 1 μM ganetespib for 15 minutes, 1, 4, 8 and 24 hours. At each time point cell lysates were prepared and media was collected for analysis of intracellular and secreted concentrations of ganetespib and its glucuronidated metabolites. Bioanalysis was performed on equal protein concentrations from cell lysates or equal volumes of media. All samples were ultimately extracted by protein precipitation and analyzed by LC-MS/MS using an Agilent 1100 HPLC interfaced to an API 4000 tandem mass spectrometer (Applied Biosystems). A Phenomenex Kinetex 2.6 μm C18 (30×2.1 mm) column was used with a run time of 3.5 min per sample.
# [13] = weekly dosing regimen; cited from earlier work
smiles,measurement,setting,value
CC(C)c1cc(-c2n[nH]c(=O)n2-c2ccc3c(ccn3C)c2)c(O)cc1O [ganetespib],IC50,[1],6 nM
same,IC50,[2],17 nM
same,IC50,[3],18 nM
same,IC50,[4],36 nM
same,IC50,[5],53 nM
same,IC50,[6],53 nM
same,IC50,[7],142 nM
same,IC50,"[8]; 72 hours (FIG. 8), read-out: IC50 values",> 1000 nM
same,IC50,"[8]; FGFR3 status FGFR3-TACC3, 72 hours, read-out: Ganetespib IC50",1730 nM
same,T/C value,[9],−23%
same,IC50,[10],36 to 2500 nM
same,IC50,[11],100 nM
same,glucuronidated form of ganetespib within cells,[12],No glucuronidated form of ganetespib was detectable
same,maximally tolerated dose,[13],150 mg/kg
